Reference: patent publication US10124033B2, “Peptides and methods of use” (BAXALTA INCORPORATED, priority 2014, dated 2018)
pIC50: −log10 of the molar value. Residues, ends and D or L forms follow the SMILES beside them.

target: T1, Protein S (Homo sapiens, UniProt P07225); assay: competition (IC50) ELISA with biotinylated tracer peptide JBS0684; type: binding; details: competition ELISA, tracer JBS0684; re-synthesized peptides
T1 sequence (P07225 41-676 limits assumed): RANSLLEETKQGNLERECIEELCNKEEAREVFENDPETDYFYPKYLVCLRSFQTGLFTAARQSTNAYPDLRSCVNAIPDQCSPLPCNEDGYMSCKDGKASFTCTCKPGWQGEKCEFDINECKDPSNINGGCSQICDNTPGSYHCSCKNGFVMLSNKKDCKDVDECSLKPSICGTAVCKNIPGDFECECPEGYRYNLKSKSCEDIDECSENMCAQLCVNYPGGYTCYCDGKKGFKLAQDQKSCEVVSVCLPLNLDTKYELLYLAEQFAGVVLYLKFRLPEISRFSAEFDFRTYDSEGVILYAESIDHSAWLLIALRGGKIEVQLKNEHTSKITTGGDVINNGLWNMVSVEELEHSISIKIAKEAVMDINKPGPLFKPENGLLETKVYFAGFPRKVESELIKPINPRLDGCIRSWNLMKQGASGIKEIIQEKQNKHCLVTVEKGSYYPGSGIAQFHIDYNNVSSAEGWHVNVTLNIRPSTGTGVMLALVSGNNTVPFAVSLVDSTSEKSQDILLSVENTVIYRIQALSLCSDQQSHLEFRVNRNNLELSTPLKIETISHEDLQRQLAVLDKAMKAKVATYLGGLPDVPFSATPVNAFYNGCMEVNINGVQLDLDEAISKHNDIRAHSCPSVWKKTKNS
Procedure: The new peptide candidates were synthesized (purity >60%) and screened for affinity in a competitive binding assay (ELISA IC50) and activity in a thrombin generation assay (CAT). The competition (IC50) ELISA was performed using biotinylated tracer peptide JBS0684 to compete for Protein S-binding with candidate peptides. Peptides that compete with the tracer bind the same region of Protein S as the tracer (and each other). Ninety-six well PolySorp plates (Nunc) were coated with 3 μg/mL Protein S in coating buffer (15 mM Na2CO3, 35 mM NaHCO3, pH 9.6) over night. Plates were washed three times with wash buffer (HNaT: 175 mM NaCl, 25 mM HEPES, 5 mM CaCl2, 0.1% Tween 80, pH 7.35), and blocked with 100 μl 2% yeast extract in HNaT for at least 1 hour. Plates were then washed three times with HNaT. JBS0684 was applied at a concentration corresponding to the EC90 value determined in the binding ELISA. A competitor stock solution of peptide (10 mM) was diluted 1/33.3 in HNaT without HSA, and a serial ⅓ dilution was prepared with HNaT with 3% DMSO. The dilution was further diluted with the biotinylated tracer peptide in a ratio of 1:6 (20 μl competitor dilution and 100 μl tracer peptide). The mixture of competitor and tracer peptide was applied to the Protein S-coated microtiter plate and incubated for 1.5 hours. The plates were washed three times with HNaT. Peptide-Protein S binding was detected by applying HRP-conjugated streptavidin to the microtiter plate, incubating the mixture for one hour, washing the plate three times with HNaT, applying TMB (3,3′5,5′-Tetramethylbenzidin), and detecting the subsequent chromogenic conversion of TMB by HRP. IC50 measurements of peptides are provided herein (see, e.g., Table 3).

pIC50 | SMILES
8.55 | CC(=O)N[C@H](C(=O)NCC(=O)N[C@@H](Cc1c[nH]cn1)C(=O)N[C@H](C(=O)N[C@@H](CO)C(=O)N[C@@H](C)C(=O)NCC(=O)N[C@@H](Cc1c[nH]c2ccccc12)C(=O)N[C@@H](Cc1ccc(O)cc1)C(=O)N[C@@H](CC(=O)O)C(=O)N[C@@H](Cc1ccc(O)cc1)C(=O)N[C@@H](CC(N)=O)C(=O)N[C@@H](Cc1ccccc1)C(=O)N[C@@H](CC(=O)O)C(=O)N[C@@H](CO)C(=O)N[C@@H](Cc1ccc(O)cc1)C(=O)N[C@@H](CCCNC(=N)N)C(=O)N[C@@H](CCC(=O)O)C(=O)N[C@@H](Cc1ccccc1)C(=O)N[C@H](C(N)=O)[C@@H](C)O)C(C)C)[C@@H](C)O [JBS2661] (Ac-TGHVSAGWYDYNFDSYREFT-NH2)

target: T1, Protein S; assay: LANCE IC50 assay (competition TR-FRET) with tracer JBS0684; type: binding; details: not given
Procedure: Peptides also were characterized in a competition, homogenous europium-based TR-FRET assay (LANCE IC50 assay) using JBS0684 as a tracer (i.e., competitor for Protein S binding). The following reagents were mixed together in a Perkin-Elmer ProxiPlate MTP well (indicated concentration is the final concentration): Eu-labeled Protein S (10 nM), Ulight™-labeled Streptavidin (100 nM), tracer (JBS0684 (300 nM)), and peptide (titrated in three-fold dilution steps). The final volume was 50 μl/well. The reaction mix was incubated for 1 hour at room temperature, then the fluorescence emission at 665 nm was recorded on a multi-mode reader (SpectraMax® M5, Molecular Devices) using the following instrument settings: Ex 340 nm, Em 665 nm, delay 50 μsec, integration 100 μsec, reads 100. Binding of tracer peptides to soluble europium-labeled Protein S was detected by Streptavidin labeled with an acceptor fluorophor (ULight™). Inhibition of tracer-binding to Protein S by a non-biotinylated peptide results in a decrease of TR-FRET between the Eu-labeled Protein S and ULight™-labeled Streptavidin. IC50 values were obtained from peptide titration curves at constant tracer concentration using non-linear regression of the fluorescence emission signals at 665 nm.

SMILES | pIC50
CC(=O)N[C@H](C(=O)NCC(=O)N[C@@H](CC(C)C)C(=O)N[C@H](C(=O)N[C@@H](CO)C(=O)N[C@@H](C)C(=O)NCC(=O)N[C@@H](Cc1c[nH]c2ccccc12)C(=O)N[C@@H](Cc1ccc(O)cc1)C(=O)N[C@@H](CC(=O)O)C(=O)N[C@@H](Cc1ccc(O)cc1)C(=O)N[C@@H](CC(N)=O)C(=O)N[C@@H](CC(N)=O)C(=O)N[C@@H](CC(=O)O)C(=O)N[C@H](C(=O)N[C@@H](Cc1ccc(O)cc1)C(=O)N[C@@H](CCCNC(=N)N)C(=O)N[C@@H](CCC(=O)O)C(=O)N[C@@H](Cc1ccccc1)C(=O)N[C@H](C(N)=O)[C@@H](C)O)[C@@H](C)O)C(C)C)[C@@H](C)O [JBS3194] (Ac-TGLVSAGWYDYNNDTYREFT-NH2) | 8.74

same assay, conditions: Table 4, multiple substitutions in JBS2572; read-out: LANCE IC50

pIC50 | SMILES
8.59 | CSCC[C@H](NC(=O)[C@H](Cc1ccc(O)cc1)NC(=O)[C@@H](NC(=O)[C@H](CC(=O)O)NC(=O)[C@H](Cc1ccccc1)NC(=O)[C@H](CC(N)=O)NC(=O)[C@H](Cc1ccc(O)cc1)NC(=O)[C@H](CC(=O)O)NC(=O)[C@H](Cc1ccc(O)cc1)NC(=O)[C@H](Cc1c[nH]c2ccccc12)NC(=O)CNC(=O)[C@H](C)NC(=O)[C@H](CO)NC(=O)[C@@H](NC(=O)[C@H](CC(C)C)NC(=O)CNC(=O)[C@@H](NC(C)=O)[C@@H](C)O)C(C)C)[C@@H](C)O)C(=O)N[C@@H](CCC(=O)O)C(=O)N[C@@H](Cc1ccccc1)C(=O)N[C@H](C(N)=O)[C@@H](C)O [JBS3186] (Ac-TGLVSAGWYDYNFDTYMEFT-NH2)
8.80 | CC(=O)N[C@@H](Cc1ccc(O)cc1)C(=O)NCC(=O)N[C@@H](CC(C)C)C(=O)N[C@H](C(=O)N[C@@H](CO)C(=O)N[C@@H](C)C(=O)NCC(=O)N[C@@H](Cc1c[nH]c2ccccc12)C(=O)N[C@@H](Cc1ccc(O)cc1)C(=O)N[C@@H](CC(=O)O)C(=O)N[C@@H](Cc1ccc(O)cc1)C(=O)N[C@@H](CC(N)=O)C(=O)N[C@@H](Cc1ccccc1)C(=O)N[C@@H](CC(=O)O)C(=O)N[C@H](C(=O)N[C@@H](Cc1ccc(O)cc1)C(=O)N[C@@H](CCCNC(=N)N)C(=O)N[C@@H](CCC(=O)O)C(=O)N[C@@H](Cc1ccccc1)C(=O)N[C@H](C(N)=O)[C@@H](C)O)[C@@H](C)O)C(C)C [JBS3190] (Ac-YGLVSAGWYDYNFDTYREFT-NH2)
8.80 | CC(=O)N[C@@H](Cc1ccc(O)cc1)C(=O)NCC(=O)N[C@@H](CC(C)C)C(=O)N[C@H](C(=O)N[C@@H](CO)C(=O)N[C@@H](C)C(=O)NCC(=O)N[C@@H](Cc1c[nH]c2ccccc12)C(=O)N[C@@H](Cc1ccc(O)cc1)C(=O)N[C@@H](CC(=O)O)C(=O)N[C@@H](Cc1ccc(O)cc1)C(=O)N[C@@H](CC(N)=O)C(=O)N[C@@H](Cc1ccccc1)C(=O)N[C@@H](CC(=O)O)C(=O)N[C@H](C(=O)N[C@@H](Cc1ccc(O)cc1)C(=O)N[C@@H](CCCNC(=N)N)C(=O)N[C@@H](CCC(=O)O)C(=O)N[C@@H](Cc1ccccc1)C(=O)N[C@H](C(N)=O)[C@@H](C)O)C(C)C)C(C)C [JBS3191] (Ac-YGLVSAGWYDYNFDVYREFT-NH2)
8.55 | CC(=O)N[C@H](C(=O)NCC(=O)N[C@@H](CC(C)C)C(=O)N[C@H](C(=O)N[C@@H](CCC(=O)O)C(=O)N[C@@H](C)C(=O)NCC(=O)N[C@@H](Cc1c[nH]c2ccccc12)C(=O)N[C@@H](Cc1ccc(O)cc1)C(=O)N[C@@H](CC(=O)O)C(=O)N[C@@H](Cc1ccc(O)cc1)C(=O)N[C@@H](CC(N)=O)C(=O)N[C@@H](Cc1ccccc1)C(=O)N[C@@H](CC(=O)O)C(=O)N[C@H](C(=O)N[C@@H](Cc1ccc(O)cc1)C(=O)N[C@@H](CCCNC(=N)N)C(=O)N[C@@H](CCC(=O)O)C(=O)N[C@@H](Cc1ccccc1)C(=O)N[C@H](C(N)=O)[C@@H](C)O)[C@@H](C)O)C(C)C)[C@@H](C)O [JBS3192] (Ac-TGLVEAGWYDYNFDTYREFT-NH2)
8.60 | CC(=O)N[C@H](C(=O)NCC(=O)N[C@@H](CC(C)C)C(=O)N[C@H](C(=O)N[C@@H](CCC(=O)O)C(=O)N[C@@H](C)C(=O)NCC(=O)N[C@@H](Cc1c[nH]c2ccccc12)C(=O)N[C@@H](Cc1ccc(O)cc1)C(=O)N[C@@H](CC(=O)O)C(=O)N[C@@H](Cc1ccc(O)cc1)C(=O)N[C@@H](CC(N)=O)C(=O)N[C@@H](Cc1ccccc1)C(=O)N[C@@H](CC(=O)O)C(=O)N[C@H](C(=O)N[C@@H](Cc1ccc(O)cc1)C(=O)N[C@@H](CCCNC(=N)N)C(=O)N[C@@H](CCC(=O)O)C(=O)N[C@@H](Cc1ccccc1)C(=O)N[C@H](C(N)=O)[C@@H](C)O)C(C)C)C(C)C)[C@@H](C)O [JBS3193] (Ac-TGLVEAGWYDYNFDVYREFT-NH2)
8.70 | CC(=O)N[C@H](C(=O)NCC(=O)N[C@@H](CC(C)C)C(=O)N[C@H](C(=O)N[C@@H](CO)C(=O)N[C@@H](C)C(=O)NCC(=O)N[C@@H](Cc1c[nH]c2ccccc12)C(=O)N[C@@H](Cc1ccc(O)cc1)C(=O)N[C@@H](CC(=O)O)C(=O)N[C@@H](Cc1ccc(O)cc1)C(=O)N[C@@H](CC(N)=O)C(=O)N[C@@H](CC(N)=O)C(=O)N[C@@H](CC(=O)O)C(=O)N[C@H](C(=O)N[C@@H](Cc1ccc(O)cc1)C(=O)N[C@@H](CCCNC(=N)N)C(=O)N[C@@H](CCC(=O)O)C(=O)N[C@@H](Cc1ccccc1)C(=O)N[C@H](C(N)=O)[C@@H](C)O)C(C)C)C(C)C)[C@@H](C)O [JBS3195] (Ac-TGLVSAGWYDYNNDVYREFT-NH2)
8.60 | CSCC[C@H](NC(=O)[C@H](Cc1ccc(O)cc1)NC(=O)[C@H](Cc1c[nH]cn1)NC(=O)[C@H](CC(=O)O)NC(=O)[C@H](CC(N)=O)NC(=O)[C@H](CC(N)=O)NC(=O)[C@H](Cc1ccc(O)cc1)NC(=O)[C@H](CC(=O)O)NC(=O)[C@H](Cc1ccc(O)cc1)NC(=O)[C@H](Cc1c[nH]c2ccccc12)NC(=O)CNC(=O)[C@H](C)NC(=O)[C@H](CO)NC(=O)[C@@H](NC(=O)[C@H](CC(C)C)NC(=O)CNC(=O)[C@@H](NC(C)=O)[C@@H](C)O)C(C)C)C(=O)N[C@@H](CCC(=O)O)C(=O)N[C@@H](Cc1ccccc1)C(=O)N[C@H](C(N)=O)[C@@H](C)O [JBS3198] (Ac-TGLVSAGWYDYNNDHYMEFT-NH2)
